Tests used:
Assay type in all cases: in vivo
[1] = test system: rice (Oryza sativa); assay: Test B flooded paddy test; conditions: for Plant response rating, Flood, Rice: 250 g ai/ha, flooded paddy test, visual rating on 0 to 100 scale (0 no effect, 100 complete control) after 13 to 15 days; for Plant response rating, Rice: Flood (flooded paddy test), 13 to 15 days; for Rice plant response rating: Flood, 31 g ai/ha, scale 0 to 100 (0 no effect, 100 complete control)
Procedure, shortened: (§1)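 Flooded-pot test: water raised to 3 cm above soil when treating, compound put in the water, level unchanged thereafter. Plants were at 2 leaves. Readout after 13 to 15 days, visual, relative to controls; 0 signifies no effect and 100 complete control.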

[2] = test system: ducksalad (Heteranthera limosa); assay: Test B flooded paddy test; conditions: for Plant response rating, Flood, Ducksalad: 250 g ai/ha, flooded paddy test, visual rating on 0 to 100 scale (0 no effect, 100 complete control) after 13 to 15 days; for Plant response rating, Ducksalad: Flood (flooded paddy test), 13 to 15 days; for Ducksalad plant response rating: Flood, 31 g ai/ha, scale 0 to 100 (0 no effect, 100 complete control)
Procedure, shortened: as §1

[3] = test system: umbrella sedge (Cyperus difformis); assay: Test B flooded paddy test; conditions: for Plant response rating, Flood, Sedge, Umbrella: 250 g ai/ha, flooded paddy test, visual rating on 0 to 100 scale (0 no effect, 100 complete control) after 13 to 15 days; for Plant response rating, Sedge, Umbrella: Flood (flooded paddy test), 13 to 15 days; for Sedge, Umbrella plant response rating: Flood, 31 g ai/ha, scale 0 to 100 (0 no effect, 100 complete control)
Procedure, shortened: as §1

[4] = test system: barnyardgrass (Echinochloa crus-galli); assay: Test B flooded paddy test; conditions: for Plant response rating, Flood, Barnyardgrass: 250 g ai/ha, flooded paddy test, visual rating on 0 to 100 scale (0 no effect, 100 complete control) after 13 to 15 days; for Plant response rating, Barnyardgrass: Flood (flooded paddy test), 13 to 15 days; for Barnyardgrass plant response rating: Flood, 31 g ai/ha, scale 0 to 100 (0 no effect, 100 complete control)
Procedure, shortened: as §1

[5] = test system: pigweed (Amaranthus retroflexus); assay: Test A pre-/postemergence plant response
Description: (§2) Seeds of barnyardgrass (Echinochloa crus-galli), large crabgrass (Digitaria sanguinalis), giant foxtail (Setaria faberii), morningglory (Ipomoea spp.), pigweed (Amaranthus retroflexus), velvetleaf (Abutilon theophrasti), wheat (Triticum aestivum) and corn (Zea mays) were planted into a blend of loam soil and sand and treated preemergence with a directed soil spray using test chemicals formulated in a non-phytotoxic solvent mixture which included a surfactant. At the same time these species were also treated with postemergence applications of test compounds formulated in the same manner.
(§3) Plants ranged in height from two to ten cm and were in the one- to two-leaf stage for the postemergence treatment. Treated plants and untreated controls were maintained in a greenhouse for approximately ten days, after which time all treated plants were compared to untreated controls and visually evaluated for injury. Plant response ratings, summarized in Table A, are based on a 0 to 100 scale where 0 is no effect and 100 is complete control. A dash (-) response means no test result.

[6] = test system: giant foxtail (Setaria faberii); assay: Test A pre-/postemergence plant response
Description: as §2, §3

[7] = test system: wheat (Triticum aestivum); assay: Test A pre-/postemergence plant response
Description: as §2, §3

[8] = test system: corn (Zea mays); assay: Test A pre-/postemergence plant response
Description: as §2, §3

[9] = test system: morningglory (Ipomoea spp.); assay: Test A pre-/postemergence plant response
Description: as §2, §3

[10] = test system: velvetleaf (Abutilon theophrasti); assay: Test A pre-/postemergence plant response
Description: as §2, §3

[11] = test system: large crabgrass (Digitaria sanguinalis); assay: Test A pre-/postemergence plant response
Description: as §2, §3

[12] = test system: barnyardgrass (Echinochloa crus-galli); assay: Test A pre-/postemergence plant response
Description: as §2, §3

[13] = 62 g ai/ha, scale of 0 to 100 where 0 is no effect and 100 is complete control
[14] = 125 g ai/ha, scale 0 to 100, 0 is no effect, 100 is complete control
[15] = Postemergence, 125 g ai/ha, 0 to 100 scale where 0 is no effect and 100 is complete control
[16] = Postemergence, 500 g ai/ha, 0 to 100 scale, 0 = no effect, 100 = complete control, approx. ten days
[17] = Preemergence, 125 g ai/ha, 0 to 100 scale, 0 = no effect, 100 = complete control
[18] = Preemergence, 500 g ai/ha, visual injury, 0 to 100 scale (0 no effect, 100 complete control), approx. ten days
[19] = Postemergence, 500 g ai/ha, visual injury, 0 to 100 scale (0 no effect, 100 complete control), approx. ten days
[20] = Preemergence, 500 g ai/ha, 0 to 100 scale, 0 = no effect, 100 = complete control
[21] = Postemergence, 125 g ai/ha, visual injury, 0 to 100 scale (0 no effect, 100 complete control), approx. ten days
[22] = Preemergence, 125 g ai/ha, 0 to 100 scale where 0 is no effect and 100 is complete control, approximately ten days

O=C1CCCC(O)=C1C(=O)c1cnc(-c2cccc(Cl)c2)n(CC2CCCO2)c1=O (centres unmarked) [Compound 142]
60: Plant response rating, Velvetleaf [10, 18]
80: Plant response rating, Flood, Ducksalad [2] | Plant response rating, Ducksalad [2, 14] | Plant response rating, Flood, Sedge, Umbrella [3] | Plant response rating, Foxtail, Giant [6, 16] | Plant response rating, Crabgrass, Large [11, 18] | Plant response rating, Barnyardgrass [12, 18]
10: Plant response rating, Flood, Barnyardgrass [4] | Plant response rating, Barnyardgrass [12, 17]
90: Plant response rating, Pigweed [5, 15] | Plant response rating, Pigweed [5, 17] | Plant response rating, Crabgrass, Large [11, 16] | Plant response rating, Barnyardgrass [12, 16]
65: Plant response rating, Sedge, Umbrella [3, 14]
50: Plant response rating, Morningglory [9, 18]
100: Plant response rating, Pigweed [5, 16] | Plant response rating, Pigweed [5, 18] | Plant response rating, Morningglory [9, 15] | Plant response rating, Morningglory [9, 16] | Plant response rating, Velvetleaf [10, 15] | Plant response rating, Velvetleaf [10, 16]
0: Plant response rating, Flood, Rice [1] | Plant response rating, Rice [1, 13] | Plant response rating, Rice [1, 14] | Rice plant response rating [1] | Plant response rating, Ducksalad [2, 13] | Ducksalad plant response rating [2] | Plant response rating, Sedge, Umbrella [3, 13] | Sedge, Umbrella plant response rating [3] | Plant response rating, Barnyardgrass [4, 13] | Plant response rating, Barnyardgrass [4, 14] | Barnyardgrass plant response rating [4] | Plant response rating, Foxtail, Giant [6, 17] | Plant response rating, Wheat [7, 15] | Plant response rating, Wheat [7, 17] | Plant response rating, Wheat [7, 18] | Plant response rating, Corn [8, 15] | Plant response rating, Corn [8, 17] | Plant response rating, Corn [8, 18] | Plant response rating, Morningglory [9, 17]
70: Plant response rating, Crabgrass, Large [11, 15] | Plant response rating, Barnyardgrass [12, 15]
30: Plant response rating, Foxtail, Giant [6, 15] | Plant response rating, Crabgrass, Large [11, 17]
20: Plant response rating, Foxtail, Giant [6, 18] | Plant response rating, Wheat [7, 16] | Plant response rating, Corn [8, 16] | Plant response rating, Velvetleaf [10, 17]

O=C1CCCC(O)=C1C(=O)c1cnc(-c2cccc(F)c2)n(CCC(F)(F)F)c1=O [Compound 208]
20: Plant response rating, Wheat [7, 20] | Corn plant response rating [8, 19] | Plant response rating, Corn [8, 20]
40: Plant response rating, Ducksalad [2, 14] | Plant response rating, Sedge, Umbrella [3, 13] | Plant response rating, Sedge, Umbrella [3, 14] | Plant response rating, Foxtail, Giant [6, 17]
25: Plant response rating, Flood, Barnyardgrass [4]
15: Plant response rating, Barnyardgrass [4, 14]
0: Plant response rating, Flood, Rice [1] | Plant response rating, Rice [1, 13] | Plant response rating, Rice [1, 14] | Rice plant response rating [1] | Ducksalad plant response rating [2] | Sedge, Umbrella plant response rating [3] | Plant response rating, Barnyardgrass [4, 13] | Barnyardgrass plant response rating [4] | Plant response rating, Wheat [7, 15] | Plant response rating, Wheat [7, 17] | Plant response rating, Corn [8, 15] | Plant response rating, Corn [8, 17] | Plant response rating, Morningglory [9, 17]
90: Pigweed plant response rating [5, 19] | Plant response rating, Velvetleaf [10, 20] | Barnyardgrass plant response rating [12, 19]
80: Plant response rating, Pigweed [5, 15] | Foxtail, Giant plant response rating [6, 19] | Crabgrass, Large plant response rating [11, 19] | Plant response rating, Crabgrass, Large [11, 17] | Plant response rating, Barnyardgrass [12, 20]
50: Plant response rating, Morningglory [9, 15]
75: Plant response rating, Flood, Ducksalad [2]
60: Plant response rating, Pigweed [5, 17] | Plant response rating, Velvetleaf [10, 17]
100: Plant response rating, Pigweed [5, 20] | Morningglory plant response rating [9, 19] | Plant response rating, Velvetleaf [10, 15] | Velvetleaf plant response rating [10, 19] | Plant response rating, Crabgrass, Large [11, 20]
30: Plant response rating, Ducksalad [2, 13] | Plant response rating, Foxtail, Giant [6, 15] | Plant response rating, Crabgrass, Large [11, 15] | Plant response rating, Barnyardgrass [12, 15]
10: Wheat plant response rating [7, 19] | Plant response rating, Barnyardgrass [12, 17]
70: Plant response rating, Flood, Sedge, Umbrella [3] | Plant response rating, Foxtail, Giant [6, 20] | Plant response rating, Morningglory [9, 20]

Cc1ccc(C)c(-n2c(-c3ccccc3)ncc(C(=O)c3cnoc3C3CC3)c2=O)c1 [Compound 222]
65: Plant response rating, Flood, Ducksalad [2]
50: Plant response rating, Ducksalad [2, 13]
0: Plant response rating, Flood, Rice [1] | Plant response rating, Rice [1, 13] | Plant response rating, Flood, Barnyardgrass [4] | Plant response rating, Barnyardgrass [4, 13] | Plant response rating, Pigweed [5, 17] | Plant response rating, Pigweed [5, 20] | Plant response rating, Foxtail, Giant [6, 15] | Plant response rating, Wheat [7, 15] | Wheat plant response rating [7, 19] | Plant response rating, Wheat [7, 17] | Plant response rating, Wheat [7, 20] | Plant response rating, Corn [8, 15] | Corn plant response rating [8, 19] | Plant response rating, Corn [8, 17] | Plant response rating, Corn [8, 20] | Plant response rating, Morningglory [9, 17] | Plant response rating, Velvetleaf [10, 17] | Plant response rating, Crabgrass, Large [11, 15] | Plant response rating, Barnyardgrass [12, 17]
60: Plant response rating, Foxtail, Giant [6, 20] | Plant response rating, Velvetleaf [10, 15] | Plant response rating, Velvetleaf [10, 20] | Plant response rating, Barnyardgrass [12, 20]
90: Velvetleaf plant response rating [10, 19]
30: Plant response rating, Sedge, Umbrella [3, 13] | Plant response rating, Foxtail, Giant [6, 17] | Plant response rating, Morningglory [9, 15] | Crabgrass, Large plant response rating [11, 19]
70: Pigweed plant response rating [5, 19]
40: Plant response rating, Flood, Sedge, Umbrella [3] | Plant response rating, Pigweed [5, 15] | Foxtail, Giant plant response rating [6, 19] | Morningglory plant response rating [9, 19] | Plant response rating, Morningglory [9, 20]
20: Plant response rating, Crabgrass, Large [11, 17] | Plant response rating, Crabgrass, Large [11, 20]
10: Plant response rating, Barnyardgrass [12, 15]
80: Barnyardgrass plant response rating [12, 19]

O=C(C1=C(O)C2CCC(C2)C1=O)c1cnc(-c2cccc(Br)c2)n(C2CCCCC2)c1=O (centres unmarked) [Compound 252]
0: Plant response rating, Flood, Rice [1] | Plant response rating, Rice [1, 13] | Plant response rating, Flood, Ducksalad [2] | Plant response rating, Ducksalad [2, 13] | Plant response rating, Flood, Sedge, Umbrella [3] | Plant response rating, Sedge, Umbrella [3, 13] | Plant response rating, Flood, Barnyardgrass [4] | Plant response rating, Barnyardgrass [4, 13] | Plant response rating, Pigweed [5, 22] | Plant response rating, Foxtail, Giant [6, 22] | Plant response rating, Wheat [7, 21] | Plant response rating, Wheat [7, 22] | Plant response rating, Wheat [7, 20] | Plant response rating, Corn [8, 15] | Plant response rating, Corn [8, 22] | Plant response rating, Corn [8, 20] | Plant response rating, Morningglory [9, 22] | Plant response rating, Barnyardgrass [12, 22] | Plant response rating, Barnyardgrass [12, 20]
20: Plant response rating, Velvetleaf [10, 22] | Plant response rating, Crabgrass, Large [11, 20]
10: Plant response rating, Foxtail, Giant [6, 20] | Wheat plant response rating [7, 19] | Corn plant response rating [8, 19] | Plant response rating, Morningglory [9, 20] | Plant response rating, Crabgrass, Large [11, 22]
60: Foxtail, Giant plant response rating [6, 19] | Crabgrass, Large plant response rating [11, 19]
30: Plant response rating, Crabgrass, Large [11, 15]
100: Morningglory plant response rating [9, 19]
70: Plant response rating, Pigweed [5, 21] | Plant response rating, Velvetleaf [10, 21]
50: Plant response rating, Velvetleaf [10, 20]
90: Pigweed plant response rating [5, 19] | Velvetleaf plant response rating [10, 19] | Barnyardgrass plant response rating [12, 19]
40: Plant response rating, Pigweed [5, 20] | Plant response rating, Foxtail, Giant [6, 21]
80: Plant response rating, Morningglory [9, 21] | Plant response rating, Barnyardgrass [12, 15]

From patent US8952024B2, “Herbicidal pyrimidone derivatives” (E I du Pont de Nemours and Company, priority 2009, dated 2015)
